We go through three compounds from patent US20130165368A1, “ANTIMICROBIAL COMPOUNDS” (priority 2010, published 2013).

In brackets after ≈: the same amount, converted by molar mass. Like-named read-outs stand apart in the source and are kept apart here.

Common to all, as to type: cell-based
Assay [1] has as its system Enterococcus faecalis (VRE) PHLS URINE 2000. Briefly: MIC agar dilution, VRE strain 21. The method, then:
(§1) Molar equivalent concentrations were used to allow comparison between compounds of differing molecular mass. Due to weighing difficulties, any compound in solid form was melted in a water bath prior to dilution. To make ten-times strength concentrations, which takes into account agar dilution, 0.0352 mmol of each compound was weighed into plastic universal bottles and 4 mL of sterile distilled water (SDW) was added. To produce a homogenous emulsion the universals were vortexed; once achieved the emulsions were serial diluted by adding 2 mL to 2 mL of SDW.
(§2) For every 100 mL of Isosensitest agar (IST) (CM0471; Oxoid, Basingstoke, England), 3.1 g of the IST powder was added to 100 mL SDW (as per manufacturer's instructions) and sterilised for 15 minutes at 121° C. Once sterilised, the molten agar was cooled to 50° C. in a water-bath. Subsequently 4.8 g of CCEY powder (BC2160; Bioconnections, Wetherby, England), also known as Brazier's medium, was added to 100 mL SDW for every 100 mL of agar needed. This was then sterilised for 15 minutes at 121° C. Once sterilised the molten agar was cooled to 50° C. in a water-bath and 4 mL of egg-yolk emulsion (S2073; TCS Biosciences Ltd, Buckingham, United Kingdom) and 1 mL of lysed defibrinated horse blood (HB035; TCS Biosciences Ltd, Buckingham, United Kingdom) were also added for every 100 mL needed. Horse blood lysis is achieved by dilution to half concentration with SDW; when fully lysed the mixture will turn dark red in colour.
(§3) 18 mL agar was added to each universal and then poured into sterile Petri dishes. This step creates a 1/10 dilution resulting in agar plates of the required strength. Control plates for each set of strains were created by adding 18 mL of agar to 2 mL of SDW.
(§4) Suspensions of each bacterial species were prepared with a density equal to that of a 0.5 McFarland standard using a densitometer. All suspensions were made using sterile distilled water and fresh 18-20 hour cultures. As a 0.5 McFarland standard contains 1.5×10^8 CFU/mL and the multipoint inoculators applies 1 μL spots of liquid, each bacterial suspension was diluted 1/15 (20 μL suspension to 280 μL sterile distilled water).
(§5) Bacterial suspensions were prepared from fresh 18-24 hour cultures as previously described. 1 μL of each strain was inoculated onto all 100 agar plates containing a different chemical concentration and the 2 control plates. This was done using a multipoint inoculator which inoculates 20 strains per plate. All plates were incubated for 22 hours at 37° C. in aerobic conditions.
(§6) Each plate was examined for bacterial growth after 22 and 48 hours, with each being incubated in between examinations. A positive result was recorded as growth of ≧10 colonies. A negative result was recorded as growth of <10 colonies as this is equivalent to 99.9% inhibition. The lowest concentration of chemical that inhibited growth was recorded as the MIC. The results are recorded in Table IV below, where the numbers are quoted in mmol/L.
(§7) Given the positive performance of the ethoxylates of lauryl alcohol in reducing the MIC for a number of the micro-organisms tested, further MIC testing of Laureth-1 [C12E1] through to Laureth-8 [C12E8] was conducted on each of the following: • 10 strains of vancomycin-resistant enterococci (VRE)—listed in Table V below; and • 20 strains of methicillin-resistant Staphylococcus aureus (MRSA)—listed in Table VI.
(§8) The alkanol, alkanol derivatives, agar plates, and inocula were all prepared in the same way as described above.
(§9) The plates were examined in the same manner as described above and the results are recorded in Table VII below, where the numbers are quoted in mmol/L.
In general terms: In agar dilution, organisms are placed on agar that contains the substance at set levels.

Another assay concerns MRSA FRA 920. Briefly: MIC agar dilution, MRSA strain 38. To be noted: Staphylococcus aureus. As to the method: as §1, §2, §3, §4, §5, §6, §7, §8, §9
Assay [2] relates to Enterococcus faecium (VRE) 255693 N. Tyneside. Kind of assay: MIC agar dilution, VRE strain 22. The method, then:
as §1, §2, §3, §4, §5, §6, §7, §8, §9

Another assay concerns Listeria monocytogenes. Briefly: MIC agar dilution, micro-organism 15 (11994). To be noted: Listeria monocytogenes 11994, read-out: MIC. In short, it runs like this: (§10)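 Agar dilution in Isosensitest/CCEY agar with egg yolk and lysed horse blood; compounds as aqueous emulsions (myristyl and lauryl alcohol with 1-methyl-2-pyrrolidone and Tween 20). 1 µL spots of 1/15-diluted 0.5 McFarland suspensions, 37 °C aerobic, read at 22 and 48 h; MIC (mmol/L) is lowest concentration giving <10 colonies.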

The test system of assay [3] is vancomycin-resistant enterococci (VRE). Kind of assay: MIC agar dilution, summary over 10 VRE strains. The note with it: Enterococcus; most, if not all, of the VRE samples. As to the method: as §7, §8, §9
Assay [4] concerns MRSA GER 131/98 (Sger Iidc). Briefly: MIC agar dilution, MRSA strain 35. The note with it: Staphylococcus aureus. As to the method: as §1, §2, §3, §4, §5, §6, §7, §8, §9
The test system of the next assay is MRSA EMRSA 15 1729/98. Kind of assay: MIC agar dilution, MRSA strain 42. The note with it: Staphylococcus aureus. As to the method:
as §1, §2, §3, §4, §5, §6, §7, §8, §9

The next assay deals with Candida glabrata. Briefly: MIC agar dilution, micro-organism 20 (3943). The note with it: Nakaseomyces glabratus, Candida glabrata 3943, read-out: MIC. In short, it runs like this:
as §10

A further assay deals with Candida albicans. Kind of assay: MIC agar dilution, micro-organism 19 (90028). The note with it: Candida albicans 90028, read-out: MIC. In short, it runs like this:
as §10

Assay [5] concerns methicillin-resistant Staphylococcus aureus (MRSA). Kind of assay: MIC agar dilution, summary over 20 MRSA strains. The note with it: MRSA bacterial samples, 22 and 48 hour. The method, then:
as §7, §8, §9

Turning to `CCCCCCCCCCCCOCCOCCOCCOCCO` [L4, Tetraethylene Glycol Monododecyl Ether], the minimal inhibitory concentration (MIC) in assay [1] (22 hrs) was 110 µM (≈ 39.9 µg/mL); in [1] (48 hrs), 110 µM (≈ 39.9 µg/mL); in the assay with MRSA FRA 920 (22 hrs) it was 55 µM (≈ 19.9 µg/mL); against MRSA FRA 920 (48 hrs), 55 µM (≈ 19.9 µg/mL); in [2] (22 hrs), 440 µM (≈ 160 µg/mL); in [2] (48 hrs), 880 µM (≈ 319 µg/mL). Besides, the MIC is 110 µM (≈ 39.9 µg/mL) in the assay with Listeria monocytogenes (22 hrs); 220 µM (≈ 79.8 µg/mL) in the assay with Listeria monocytogenes (48 hrs); at most 440 µM in assay [3]; 110 µM (≈ 39.9 µg/mL) in [4] (22 hrs); 110 µM (≈ 39.9 µg/mL) in assay [4] (48 hrs); 55 µM (≈ 19.9 µg/mL) against MRSA EMRSA 15 1729/98 (22 hrs). Besides, the minimum inhibitory concentration (MIC) against MRSA EMRSA 15 1729/98 (48 hrs) is 55 µM (≈ 19.9 µg/mL); in the assay with Candida glabrata (22 h, 22 hrs), 110 µM (≈ 39.9 µg/mL); in the assay on Candida glabrata (48 h, 48 hrs), 110 µM (≈ 39.9 µg/mL); with Candida albicans (22 hrs) it was 440 µM (≈ 160 µg/mL); in the assay on Candida albicans (48 hrs), 220 µM (≈ 79.8 µg/mL); in assay [5], around 55 µM (≈ 19.9 µg/mL).
For the compound `CCCCCCCCCCCCOCCOCCOCCOCCOCCOCCOCCO` [L7, Heptaethylene Glycol Monododecyl Ether], the MIC in [1] (22 hrs) is 440 µM (≈ 218 µg/mL); in [1] (48 hrs) it was 880 µM (≈ 435 µg/mL); in the assay with MRSA FRA 920 (22 hrs), 220 µM (≈ 109 µg/mL); against MRSA FRA 920 (48 hrs), 440 µM (≈ 218 µg/mL); in assay [2] (22 hrs), above 880 µM; in assay [2] (48 hrs) it was above 880 µM. Also, the MIC in the assay with Listeria monocytogenes (22 hrs) came out at 220 µM (≈ 109 µg/mL); in the assay with Listeria monocytogenes (48 hrs) it was 220 µM (≈ 109 µg/mL); in assay [4] (22 hrs) it was 110 µM (≈ 54.4 µg/mL); in assay [4] (48 hrs), 220 µM (≈ 109 µg/mL); in the assay with MRSA EMRSA 15 1729/98 (22 hrs) it was 440 µM (≈ 218 µg/mL); against MRSA EMRSA 15 1729/98 (48 hrs), 440 µM (≈ 218 µg/mL). The MIC in the assay with Candida glabrata (22 hrs) is above 880 µM; in the assay with Candida glabrata (48 hrs), above 880 µM; in the assay on Candida albicans (22 hrs), above 880 µM; in the assay with Candida albicans (48 hrs), above 880 µM; in [5], around 440 µM (≈ 218 µg/mL).
On to `CCCCCCCCCCCCOCCOCCOCCOCCOCCOCCOCCOCCO` [L8, Octaethylene Glycol Monododecyl Ether], for which the MIC in assay [1] (22 hrs) was 220 µM (≈ 119 µg/mL); in assay [1] (48 hrs) it was 220 µM (≈ 119 µg/mL); against MRSA FRA 920 (22 hrs), above 440 µM; against MRSA FRA 920 (48 hrs), above 440 µM; in [2] (22 hrs), above 880 µM; in assay [2] (48 hrs), above 880 µM. In addition, the MIC in the assay on Listeria monocytogenes (22 hrs) is 440 µM (≈ 237 µg/mL); in the assay with Listeria monocytogenes (48 hrs) it was above 880 µM; in assay [4] (22 hrs) it was 440 µM (≈ 237 µg/mL); in assay [4] (48 hrs), above 440 µM; against MRSA EMRSA 15 1729/98 (22 hrs), above 440 µM; with MRSA EMRSA 15 1729/98 (48 hrs), above 440 µM. The minimal inhibitory concentration (MIC) is above 880 µM in the assay with Candida glabrata (22 h, 22 hrs); above 880 µM with Candida glabrata (48 h, 48 hrs); above 880 µM with Candida albicans (22 hrs); above 880 µM in the assay on Candida albicans (48 hrs); around 440 µM (≈ 237 µg/mL) in assay [5].

Broadly, the MIC is the least concentration at which growth counts as inhibited.
